B1: OATP1B1 (Homo sapiens) (protein)
chain: MDQNQHLNKTAEAQPSENKKTRYCNGLKMFLAALSLSFIAKTLGAIIMKSSIIHIERRFEISSSLVGFIDGSFEIGNLLVIVFVSYFGSKLHRPKLIGIGCFIMGIGGVLTALPHFFMGYYRYSKETNINSSENSTSTLSTCLINQILSLNRASPEIVGKGCLKESGSYMWIYVFMGNMLRGIGETPIVPLGLSYIDDFAKEGHSSLYLGILNAIAMIGPIIGFTLGSLFSKMYVDIGYVDLSTIRITPTDSRWVGAWWLNFLVSGLFSIISSIPFFFLPQTPNKPQKERKASLSLHVLETNDEKDQTANLTNQGKNITKNVTGFFQSFKSILTNPLYVMFVLLTLLQVSSYIGAFTYVFKYVEQQYGQPSSKANILLGVITIPIFASGMFLGGYIIKKFKLNTVGIAKFSCFTAVMSLSFYLLYFFILCENKSVAGLTMTYDGNNPVTSHRDVPLSYCNSDCNCDESQWEPVCGNNGITYISPCLAGCKSSSGNKKPIVFYNCSCLEVTGLQNRNYSAHLGECPRDDACTRKFYFFVAIQVLNLFFSALGGTSHVMLIVKIVQPELKSLALGFHSMVIRALGGILAPIYFGALIDTTCIKWSTNNCGTRGSCRTYNSTSFSRVYLGLSSMLRVSSLVLYIILIYAMKKKYQEKDINASENGSVMDEANLESLNKNKHFVPSAGADSETHC

Legend:
Assay in all cases: flow cytometry uptake in Sf9 cells expressing the transporter
OATP1B3 = molecular target: T1, OATP1B3 (Homo sapiens, UniProt Q9NPD5); type: cell-based
T1 sequence (Q9NPD5 1-702): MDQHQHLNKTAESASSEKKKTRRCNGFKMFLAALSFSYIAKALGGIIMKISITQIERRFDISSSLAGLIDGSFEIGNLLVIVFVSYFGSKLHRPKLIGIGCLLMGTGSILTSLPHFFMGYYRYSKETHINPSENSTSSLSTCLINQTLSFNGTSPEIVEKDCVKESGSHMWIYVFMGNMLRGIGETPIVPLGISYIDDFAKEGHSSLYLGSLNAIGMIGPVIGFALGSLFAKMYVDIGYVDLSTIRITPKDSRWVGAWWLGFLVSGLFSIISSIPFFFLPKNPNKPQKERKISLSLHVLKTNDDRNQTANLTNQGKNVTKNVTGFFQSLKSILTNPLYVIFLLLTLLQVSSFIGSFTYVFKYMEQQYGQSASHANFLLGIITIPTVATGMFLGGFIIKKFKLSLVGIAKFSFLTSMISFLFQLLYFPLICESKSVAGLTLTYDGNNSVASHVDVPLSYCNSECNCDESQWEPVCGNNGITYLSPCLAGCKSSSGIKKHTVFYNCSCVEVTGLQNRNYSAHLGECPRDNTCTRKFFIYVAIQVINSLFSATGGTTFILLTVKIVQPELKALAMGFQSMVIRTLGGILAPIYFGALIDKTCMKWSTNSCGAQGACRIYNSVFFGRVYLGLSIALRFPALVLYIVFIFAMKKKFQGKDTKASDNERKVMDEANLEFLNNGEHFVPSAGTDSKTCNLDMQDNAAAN

OATP1B1 = molecular target: T2, OATP1B1 (Homo sapiens, UniProt Q9Y6L6); type: cell-based
T2 sequence (Q9Y6L6 1-691): B1 chain

[1] = substrate: O=C1OC2(c3ccc(O)cc3Oc3cc(O)ccc32)c2ccccc21; type: cell-based, Homo sapiens

| Molecule | Km (OATP1B3) | Km (OATP1B1) | Km [1] |
| --- | --- | --- | --- |
| O=C1OC2(c3ccc(O)cc3Oc3cc(O)ccc32)c2ccccc21 [Na-Fluo, sodium fluorescein] | 38.6 µM | – | – |
| fluorescein-methotrexate [Fl-MTX] | 0.53 µM | 0.23 µM | – |
| B1 | – | – | 25.73 µM |
